Here are results for 14 compounds from patent publication US6562606B1, “Methods and compositions for disrupting the epithelial barrier function” (The Regents of the University of California, priority 1993, dated 2003).

Data set [1] relates to intact pig skin. Nature of the data set: TEWL of intact pig skin under occlusion (Hilltop chamber), testosterone formulations. The data set is classed as in vivo. Conditions: for barrier integrity / barrier permeability (TEWL) vs occlusion and TS controls, in words: Tables 9-11; for 6 h Post TEWL (x baseline): 6 h after removal of formulation.
The subject of data set [2] is hairless mice. In words: TEWL (water permeability) 4 hours after application to acetone-treated skin. Conditions: for stratum corneum water permeability (TEWL), increase vs vehicle in words: statistical significance vs vehicle, concentrations and skin treatment as in Tables 2-7. The data set is classed as in vivo.
Data set [3] in a line: Transdermal LHRH delivery: plasma level by radioimmunoassay, ratio to vehicle. The note with it: ratio of LHRH plasma levels (RIA) after tested delivery compound(s) to vehicle; acid lipase vs its vehicle MES.
For data set [4] the following is noted: topical; literature (J. Clin. Invest. 88, 1991); cited from earlier work.
Data set [5] relates to hairless mice. Nature of the data set: Epidermal barrier disruption: marker (propylene glycol, cyclophenol) profile in stratum corneum by IR and tape-stripping. It counts as in vivo. The protocol:
To determine the epidermal barrier disruption by application of fluindostatin, an animal testing was conducted in the manner as follows: Hairless mice (two animals, B and C) were topically pretreated with fluindostatin for 7 days. In a control group, animals (two) were only treated with a vehicle. […] The parameters for the vehicle in all of the experiments herein are as follows: […] N=14. After treatment, the skin surface was cleaned and stratum corneum allowed to recover to its normal state of hydration for 2 hours. An IR spectrum of the hydrophilic marker compound, propylene glycol, was recorded, and a single tape-stripping was conducted at the treated skin site. Another spectrum was recorded followed by the removal of a. second tape strip. The same sequence was repeated 10 times. FIGS. 4A, 4B show the test results. […] In essentially the same manner, cyclophenol (CP) was used as a.lipophilic marker. Tape-stripping was repeated 7 times after application of fluindostatin.

Data set [6] relates to hairless mouse. In words: TEWL recovery after oleic acid treatment. The data set is classed as in vivo. The note with it: 30 μl of 1.5% fluindostatin or 0.25% TOFA in propylene glycol/ethanol 7:3, two hours after 5% oleic acid (FIG. 6A, 6B). How it is done:
A female hairless mouse, aged 8 weeks, was treated with oleic acid. After oleic acid treatment, fluindostatin and/or 5-tetradecyloxy-2-furancarboxylic acid (TOFA) was applied to the animal.
TEWL (trans-epidermal water loss) was measured before and after treatment at convenient time intervals when the animal was alert. An Evaporimeter (ServoMed) was used.
First, TEWL of the left (LHS) and right (RHS) dorsal sides was measured. Then, the animal was anesthetized by 0.25 ml chloral hydrate (CH) IP injection. At t=0, an aliquot of 30 μl oleic acid solution (5% in propylene glycol/ethanol 7:3 (v/v)) was applied directly to both sides of the animal (˜1.5×3 cm) using a Hamilton syringe. […] TEWL was measured thereafter every 2 or 3 hours.

[7] abbreviates: solitary agent, Conc 0.5 %, acetone-treated skin.
Where [8] appears, read: lidocaine, solitary enhancer Conc 0.5 %, acetone-treated skin.
Where [9] appears, read: statistical significance vs vehicle, concentrations and skin treatment as in Tables 2-7.
Setting [10] is: solitary agent, Conc 1.0 %, acetone-treated skin.

Where a name gives a salt, the structure may show the parent alone. Read-outs that look alike come from different tables or passages of the source.

In the case of `CCCCCCCC/C=C\CCCCCCCC(=O)O[C@H]1CC[C@@]2(C)C(=CC[C@H]3[C@@H]4CC[C@H]([C@H](C)CCCC(C)C)[C@@]4(C)CC[C@@H]32)C1` [CHO, Cholesterol Oleate], the “24 h TEWL (x baseline)” value in data set [1] (Table 9, 0.05 weight %, 24 h) was found to be 1.53 x baseline. In data set [1] (Table 9, 0.05 weight %), the “48 h TEWL (x baseline)” value stood at 2.16 x baseline and the “72 h TEWL (x baseline)” value came out at 2.71 x baseline. Moreover, in data set [1] (intact pig skin), the “barrier integrity / barrier permeability (TEWL) vs occlusion and TS controls, in words” value is given as “comparable to or superior to both controls”.
In the case of `CCCC[C@@H](C)[C@@H](OC(=O)C[C@@H](CC(=O)O)C(=O)O)[C@H](C[C@@H](C)C[C@H](O)CCCC[C@@H](O)C[C@H](O)[C@H](C)N)OC(=O)C[C@@H](CC(=O)O)C(=O)O` [fumonisin B1, Fumonisin B1], in data set [2] (setting [7]), the “TEWL (T = 4 hours)” value was 440 ± 149. Besides, under setting [8], the “Plasma Conc. (% dose/ml plasma)” value is on record as 0.24 ± 0.03 % dose/ml plasma and the “Total Body Conc. (%)” value is reported as 14.58 ± 0.73%. In addition, the “lidocaine delivery, increase vs vehicle in words” value (from here on “lidocaine delivery, increase”) under setting [9] is “very significantly increased lidocaine delivery”. Further, the “LHRH Delivery Ratio vs. Vehicle” value in data set [3] is recorded as 3.8.
On to Gramicidin D [GD], for which the “barrier integrity / barrier permeability (TEWL) vs occlusion and TS controls, in words” value in data set [1] (intact pig skin) is given as “increase barrier permeability to TS to a degree significantly superior to that provided by either control at all time points”.
For the compound `CC[C@H](C)C(=O)O[C@H]1C[C@@H](C)C=C2C=C[C@H](C)[C@H](CC[C@@H]3C[C@@H](O)CC(=O)O3)[C@H]21` [lovastatin, Lovastatin], in data set [4], the “recovery of barrier function, assessed as transepidermal water loss” value was “impair the recovery of barrier function”.
As for `O[C@H]1[C@H](O)[C@@H](O)[C@@H]2O[C@@H]2[C@@H]1O` [conduritol-β-epoxide, Conduritol-β-epoxide], in data set [2] (frequently applied to intact skin), the “water permeability (TEWL), increase vs vehicle in words” value was “statistically significant increased lidocaine delivery and water permeability”. In addition, the “TEWL (T = 4 hours)” value in data set [2] (solitary agent, Conc 4.0 %, intact skin, TID, total 7-8 doses) was 184 ± 39; in data set [2] (solitary agent, Conc 4.0 %, single application, acetone-treated skin) it was 253 ± 33. Also, the “stratum corneum water permeability (TEWL), increase vs vehicle in words” value in data set [2] is “failing even nearly significantly to increase either water permeability or lidocaine delivery”.
For `CC(C)n1c(/C=C/C(O)CC(O)CC(=O)O)c(-c2ccc(F)cc2)c2ccccc21` (stereo not shown) [Fluindostatin], the “disruption of the stratum corneum barrier (both marker data sets)” value in data set [5] (PG and CP markers) is “caused significant disruption of the stratum corneum barrier”. Moreover, in data set [5] (tape-stripping repeated 7 times, vs vehicle control (FIG. 5A, 5B)), the “cyclophenol (lipophilic marker) concentration profile in stratum corneum” value was “a lower, constant concentration level of CP”. In addition, the “propylene glycol (hydrophilic marker) concentration profile in stratum corneum” value in data set [5] (topical pretreatment 7 days, IR spectra over 10 tape-strippings, vs vehicle control (FIG. 4A, 4B)) was “lower absolute levels of PG in the stratum corneum, and a constant concentration level of PG”. Moreover, the “recovery of the barrier (TEWL) after oleic acid disruption” value in data set [6] is “delay the recovery of the barrier”. Besides, the “TEWL (T = 4 hours)” value in data set [2] (4 h) amounted to 431 ± 46. In addition, the “stratum corneum water permeability (TEWL), increase vs vehicle in words” value in data set [2] was “significantly increased it”.
On to `CC[C@H](C)C(=O)O[C@H]1CCC=C2C=C[C@H](C)[C@H](CC[C@@H]3C[C@@H](O)CC(=O)O3)[C@H]21` [MEV, Mevastatin], for which the “24 h TEWL (x baseline)” value in data set [1] (Table 9, 0.08 weight %, 24 h after first administration) is 1.75 x baseline; in data set [1] (Table 9, 0.12 weight %, 24 h), 1.79 x baseline; in data set [1] (Table 10, 0.006 weight %, 24 h) it was 1.55 ± 0.29 x baseline; in data set [1] (Table 10, 0.10 weight %, 24 h), 1.93 ± 0.58 x baseline; in data set [1] (Table 10, 0.25 weight %, 24 h) it was 1.47 ± 0.18 x baseline. Also, the “48 h TEWL (x baseline)” value in data set [1] (Table 9, 0.08 weight %) is reported as 2.39 x baseline; in data set [1] (Table 9, 0.12 weight %) it was 2.75 x baseline; in data set [1] (Table 10, 0.006 weight %), 2.13 ± 0.38 x baseline; in data set [1] (Table 10, 0.10 weight %) it was 3.77 ± 1.42 x baseline; in data set [1] (Table 10, 0.25 weight %), 2.66 ± 1.00 x baseline. For the same compound, the “72 h TEWL (x baseline)” value in data set [1] (Table 9, 0.08 weight %) is 3.72 x baseline; in data set [1] (Table 9, 0.12 weight %), 3.72 x baseline; in data set [1] (Table 10, 0.006 weight %), 1.75 ± 0.21 x baseline; in data set [1] (Table 10, 0.10 weight %), 3.04 ± 0.86 x baseline; in data set [1] (Table 10, 0.25 weight %), 2.43 ± 0.51 x baseline. The “6 h Post TEWL (x baseline)” value in data set [1] (Table 10, 0.006 weight %) stood at 1.24 ± 0.29 x baseline; in data set [1] (Table 10, 0.10 weight %), 2.25 ± 0.8 x baseline; in data set [1] (Table 10, 0.25 weight %) it was 1.90 ± 0.28 x baseline. Also, the “barrier integrity / barrier permeability (TEWL) vs occlusion and TS controls, in words” value in data set [1] (intact pig skin) is “decreased barrier integrity to a substantial degree over that provided by either control”. The “capacity to deliver testosterone (TS) vs both controls, in words” value in data set [1] (intact pig skin, said to be shown in Table 11) is reported as “superior capacity of MEV to deliver testosterone (TS) over that of both controls”.
Take `N[C@@H](CCl)C(=O)O` [β-chloroalanine, β-Chloroalanine]: the “TEWL (T = 4 hours)” value in data set [2] (setting [10]) worked out at 263 ± 35. Also, in data set [2], the “stratum corneum water permeability (TEWL), increase vs vehicle in words” value is on record as “did not increase stratum corneum water permeability”. In addition, the “lidocaine delivery, increase” value under setting [9] is “significant increase”. In addition, in data set [4], the “recovery of barrier function, assessed as transepidermal water loss” value was “slow barrier recovery”.
As for “N-Palmitoyl-DL-dihydroxysphingosine [N-palmitoyl-DL-hydroxysphingosine]”, in data set [2] (setting [7]), the “TEWL (T = 4 hours)” value came to 793 ± 124. The “stratum corneum water permeability (TEWL), increase vs vehicle in words” value in data set [2] was “very significantly increased water permeability”. Under “mouse, in vivo”, the “Plasma Conc. (% dose/ml plasma)” value turned out to be 0.21 ± 0.03 % dose/ml plasma; the “Total Body Conc. (%)” value worked out at 6.88 ± 0.69%; the “lidocaine delivery, increase” value is on record as “significantly increased it”.
For `CCCCCCCC/C=C\CCCCCCCC(=O)NCCO` [N-oleoylethanolamine, N-Oleoylethanolamine], the “TEWL (T = 4 hours)” value in data set [2] (setting [7]) turned out to be 720 ± 229. For the same compound, the “stratum corneum water permeability (TEWL), increase vs vehicle in words” value in data set [2] was “very significantly increased water permeability”. The “24 h TEWL (x baseline)” value was determined as 1.46 x baseline in data set [1] (Table 9, 0.03 weight %, 24 h) and 1.67 x baseline in data set [1] (Table 9, 0.10 weight %, 24 h). Also, the “48 h TEWL (x baseline)” value in data set [1] (Table 9, 0.03 weight %) is given as 2.25 x baseline; in data set [1] (Table 9, 0.10 weight %) it was 2.45 x baseline. Besides, the “72 h TEWL (x baseline)” value stood at 3.15 x baseline in data set [1] (Table 9, 0.03 weight %) and 3.68 x baseline in data set [1] (Table 9, 0.10 weight %). Also, the “barrier integrity / barrier permeability (TEWL) vs occlusion and TS controls, in words” value in data set [1] (intact pig skin) was “increases barrier permeability in a dose response manner”.
With `CC(C)CCC[C@@H](C)[C@H]1CC[C@H]2[C@@H]3CC=C4C[C@@H](OS(=O)(=O)O)CC[C@]4(C)[C@H]3CC[C@]12C` [cholesterol sulfate, Cholesterol sulfate], the “TEWL (T = 4 hours)” value in data set [2] (setting [10]) was 508 ± 169. Also, in data set [2], the “stratum corneum water permeability (TEWL), increase vs vehicle in words” value is “significantly increased it”. Also, the “lidocaine delivery, increase” value under setting [9] was “statistically very significant increase in lidocaine delivery”.
Regarding `CCCCCCCCCCCCCCOc1ccc(C(=O)O)o1` [TOFA, 5-tetradecyloxy-2-furancarboxylic acid], in data set [6], the “recovery of the barrier (TEWL) after oleic acid disruption” value is “delay the recovery of the barrier”. Also, the “TEWL (T = 4 hours)” value in data set [2] (setting [10]) worked out at 520 ± 31. For the same compound, the “stratum corneum water permeability (TEWL), increase vs vehicle in words” value in data set [2] is “very significantly increased water permeability”.
`CCN(CC)CCCC(C)Nc1ccnc2cc(Cl)ccc12` (stereo not shown) [CQ, Chloroquine]: the “barrier integrity / barrier permeability (TEWL) vs occlusion and TS controls, in words” value in data set [1] (intact pig skin) is given as “increase barrier permeability to TS to a degree significantly superior to that provided by either control at all time points”.
For the compound Bromophenacylbromide, the “water permeability (TEWL), increase vs vehicle in words” value in data set [2] (solitary agent on intact skin) was “but not water permeability”. The “TEWL (T = 4 hours)” value is 98 ± 47 in data set [2] (solitary agent, Conc 0.15 %, intact skin) and 690 ± 177 in data set [2] (solitary agent, Conc 0.2 %, acetone-treated (prepermeabilized) skin). In addition, the “stratum corneum water permeability (TEWL), increase vs vehicle in words” value in data set [2] was “very significant increases of both lidocaine delivery and water permeability”.
